Measured values: ChEMBL document CHEMBL4043095, “Cyclic MOG35-55 ameliorates clinical and neuropathological features of experimental autoimmune encephalomyelitis” (2017)
Each block holds one compound with its values, some of them ahead of it. Active and inactive are the calls of the source. The rule behind the calls is not given here. Residues, ends and D or L forms follow the SMILES beside them.

Key:
[1] = target: HLA-DRB2 protein (Homo sapiens) (UniProt Q30155); assay: Inhibition of AMCA-labeled MBP (83 to 99) binding to HLA-DR2b […] in human HTC-Lan B cells at 10 fold excess after 48 hrs by fluorescence spectrophotometric method; format: cell-based
Chain of HLA-DRB2 protein (Homo sapiens) (Q30155 as listed by the source): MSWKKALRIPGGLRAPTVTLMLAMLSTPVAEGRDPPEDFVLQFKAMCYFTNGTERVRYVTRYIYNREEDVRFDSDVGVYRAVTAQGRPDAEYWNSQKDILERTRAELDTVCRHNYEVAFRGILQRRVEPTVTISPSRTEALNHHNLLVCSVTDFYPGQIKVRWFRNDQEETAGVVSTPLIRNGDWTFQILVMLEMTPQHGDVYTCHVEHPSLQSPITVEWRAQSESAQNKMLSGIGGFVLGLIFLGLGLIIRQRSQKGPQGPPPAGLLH

[2] = target: HLA-DRB2 protein (Homo sapiens) (UniProt Q30155); assay: Inhibition of AMCA-labeled MBP (83 to 99) binding to HLA-DR2b […] in human HTC-Lan B cells at 20 fold excess after 48 hrs by fluorescence spectrophotometric method; format: cell-based
Mus musculus [3] = assay: (§1) Immunomodulatory activity in C57BL/6 mouse subcutaneously immunized using 1:1 mixture of linear and cyclic MOG35 to 55 peptide in presence of complete Freunds adjuvant (CFA) followed by intraperitoneal pertussis toxin assessed as reduction in overall disease burden measured 46 days post disease induction; format: functional
Mus musculus [4] = assay: as §1, with “16” for “46”; format: functional
Mus musculus [5] = assay: (§2) Antiinflammatory activity in C57BL/6 mouse EAE model subcutaneously immunized using 1:1 mixture of linear and cyclic MOG35 to 55 peptide in presence of complete Freunds adjuvant (CFA) followed by intraperitoneal pertussis toxin assessed as reduction in size of inflammatory foci measured 46 days post disease induction by Bielschowsky silver impregnation staining method combined with haematoxylin staining-based assay; format: functional
Mus musculus [6] = assay: as §2, with “16” for “46”; format: functional
Mus musculus [7] = assay: as §2, with “Luxol fast blue (LFB)” for “Bielschowsky silver impregnation”, “counterstained” for “method combined”, “Nuclear fast Red” for “haematoxylin”; format: functional
Mus musculus [8] = assay: as §2, with “16” for “46”, “Luxol fast blue (LFB)” for “Bielschowsky silver impregnation”, “counterstained” for “method combined”, “Nuclear fast Red” for “haematoxylin”; format: functional
Mus musculus [9] = assay: (§3) Antiinflammatory activity in C57BL/6 mouse EAE model subcutaneously immunized using 1:1 mixture of linear and cyclic MOG35 to 55 peptide in presence of complete Freunds adjuvant (CFA) followed by intraperitoneal pertussis toxin assessed as protection against axonal injury by measuring normal cell population in spinal cord measured 16 days post disease induction (reference value: 4.3%); format: functional
Mus musculus [10] = assay: as §3, with “as” for “as protection against”, “injury” for “injury by measuring normal cell population”, “15.2 to 42.4%)” for “4.3%)”; format: functional
Mus musculus [11] = assay: as §3, with “as” for “as protection against”, “injury” for “injury by measuring normal cell population”, “46” for “16”, “0.7 to 36%)” for “4.3%)”; format: functional
Mus musculus [12] = assay: as §3, with “loss” for “injury”; format: functional
Mus musculus [13] = assay: as §3, with “as” for “as protection against”, “loss” for “injury by measuring normal cell population”, “13 to 30.4%)” for “4.3%)”; format: functional
Mus musculus [14] = assay: as §2, with “demyelinating area” for “in size of inflammatory foci”, “Luxol fast blue (LFB)” for “Bielschowsky silver impregnation”, “counterstained” for “method combined”, “Nuclear fast Red” for “haematoxylin”; format: functional
Mus musculus [15] = assay: as §2, with “demyelinating area” for “in size of inflammatory foci”, “16” for “46”, “Luxol fast blue (LFB)” for “Bielschowsky silver impregnation”, “counterstained” for “method combined”, “Nuclear fast Red” for “haematoxylin”; format: functional
Mus musculus [16] = assay: as §2, with “demyelinating area” for “in size of inflammatory foci”; format: functional
Mus musculus [17] = assay: as §2, with “demyelinating area” for “in size of inflammatory foci”, “16” for “46”; format: functional
Mus musculus [18] = assay: as §3, with “46” for “16”, “32%)” for “4.3%)”; format: functional
Mus musculus [19] = assay: as §3, with “loss” for “injury”, “46” for “16”, “27.3%)” for “4.3%)”; format: functional
Mus musculus [20] = assay: as §3, with “as” for “as protection against”, “loss” for “injury by measuring normal cell population”, “46” for “16”, “4.7 to 26%)” for “4.3%)”; format: functional
[21] = target: HLA-DRB2 protein (Homo sapiens) (UniProt Q30155); assay: Inhibition of AMCA-labeled MBP (83 to 99) binding to HLA-DR2b […] in human HTC-Lan B cells at 50 fold excess after 48 hrs by fluorescence spectrophotometric method; format: cell-based

inhibition [1]: Active
SMILES: CC[C@H](C)[C@H](NC(=O)[C@H](CC(N)=O)NC(=O)[C@H](CCCCN)NC(=O)[C@H](Cc1ccccc1)NC(=O)[C@H](Cc1ccccc1)NC(=O)[C@H](Cc1cnc[nH]1)NC(=O)[C@@H](NC(=O)[C@@H](NC(=O)[C@@H]1CCCN1C(=O)[C@H](CC(N)=O)NC(=O)[C@@H](N)CCC(=O)O)C(C)C)C(C)C)C(=O)N[C@H](C(=O)N[C@H](C(=O)N1CCC[C@H]1C(=O)N[C@@H](CCCNC(=N)N)C(=O)N[C@H](C(=O)N1CCC[C@H]1C(=O)O)[C@@H](C)O)[C@@H](C)O)C(C)C

inhibition [2]: Active
SMILES: CSCC[C@H](N)C(=O)N[C@@H](CCC(=O)O)C(=O)N[C@H](C(=O)NCC(=O)N[C@@H](Cc1c[nH]c2ccccc12)C(=O)N[C@@H](Cc1ccc(O)cc1)C(=O)N[C@@H](CCCNC(=N)N)C(=O)N[C@@H](CO)C(=O)N1CCC[C@H]1C(=O)N[C@@H](Cc1ccccc1)C(=O)N[C@@H](CO)C(=O)N[C@@H](CCCNC(=N)N)C(=O)N[C@H](C(=O)N[C@H](C(=O)N[C@@H](Cc1cnc[nH]1)C(=O)N[C@@H](CC(C)C)C(=O)N[C@@H](Cc1ccc(O)cc1)C(=O)N[C@@H](CCCNC(=N)N)C(=O)N[C@@H](CC(N)=O)C(=O)NCC(=O)N[C@@H](CCCCN)C(=O)O)C(C)C)C(C)C)C(C)C (H-MEVGWYRSPFSRVVHLYRNGK-OH)

SMILES: CSCC[C@@H]1NC(=O)[C@H](CCCCN)NC(=O)CNC(=O)[C@H](CC(N)=O)NC(=O)[C@H](CCCNC(=N)N)NC(=O)[C@H](Cc2ccc(O)cc2)NC(=O)[C@H](CC(C)C)NC(=O)[C@H](Cc2cnc[nH]2)NC(=O)[C@H](C(C)C)NC(=O)[C@H](C(C)C)NC(=O)[C@H](CCCNC(=N)N)NC(=O)[C@H](CO)NC(=O)[C@H](Cc2ccccc2)NC(=O)[C@@H]2CCCN2C(=O)[C@H](CO)NC(=O)[C@H](CCCNC(=N)N)NC(=O)[C@H](Cc2ccc(O)cc2)NC(=O)[C@H](Cc2c[nH]c3ccccc23)NC(=O)CNC(=O)[C@H](C(C)C)NC(=O)[C@H](CCC(=O)O)NC1=O (cyclo(EVGWYRSPFSRVVHLYRNGKM))
Activity (Mus musculus [3]): Active | Activity (Mus musculus [4]): Active | Activity (Mus musculus [5]): Active | Activity (Mus musculus [6]): Active | Activity (Mus musculus [7]): Active | Activity (Mus musculus [8]): Active | Activity (Mus musculus [9]): 37.1% | Activity (Mus musculus [10]): 0.9 - 40.5% | Activity (Mus musculus [11]): 0.7 - 26.5% | Activity (Mus musculus [12]): 36.2% | Activity (Mus musculus [13]): 1.7 - 27.6% | Activity (Mus musculus [14]): Active | Activity (Mus musculus [15]): Active | Activity (Mus musculus [16]): Active | Activity (Mus musculus [17]): Active | Activity (Mus musculus [18]): 48.3% | Activity (Mus musculus [19]): 45.6% | Activity (Mus musculus [20]): 2 - 27.2% | inhibition [21]: Active
